Assay results taken from patent US10343992B2, “1-cyano-pyrrolidine compounds as USP30 inhibitors” (MISSION THERAPEUTICS LIMITED, priority 2015, dated 2019).
pIC50: −log10 of the molar value.

What follows are compounds tested against USP30 (Homo sapiens (Human), UniProt Q70CQ3) (assay: USP30 biochemical FP or FI IC50 assay). Details: read-out: IC50 range.
Experimental: USP30 Biochemical IC50 Assay
Dilution plates were prepared at 21 times the final concentration (2100 μM for a final concentration of 100 μM) in 50% DMSO in a 96-well polypropylene V-bottom plate (Greiner #651201). A typical 8-point dilution series would be 100, 30, 10, 3, 1, 0.3, 0.1, 0.03 μM final. Reactions were performed in duplicate in black 384 well plates (small volume, Greiner 784076) in a final reaction volume of 21 μl. Either 1 μl of 50% DMSO or diluted compound was added to the plate. USP30 was diluted in reaction buffer (40 mM Tris, pH 7.5, 0.005% Tween 20, 0.5 mg/ml BSA, 5 mM—beta-mercaptoethanol) to the equivalent of 0.05 μl/well and 10 μl of diluted USP30 was added to the compound. Enzyme and compound were incubated for 30 min at room temp. Reactions were initiated by the addition of 50 nM of TAMRA labelled peptide linked to ubiquitin via an iso-peptide bond as fluorescence polarisation substrate. Reactions were read immediately after addition of substrate and following a 2 hr incubation at room temperature. Readings were performed on a Pherastar Plus (BMG Labtech). λ Excitation 540 nm; λ Emission 590 nm.
USP30 Biochemical Fluorescence Intensity IC50 Assay
Dilution plates were prepared at 21 times the final concentration (2100 μM for a final concentration of 100 μM) in 50% DMSO in a 96-well polypropylene V-bottom plate (Greiner #651201). A typical 8-point dilution series would be 100, 30, 10, 3, 1, 0.3, 0.1, 0.03 μM final. Reactions were performed in duplicate in black 384 well plates (small volume, Greiner 784076) in a final reaction volume of 21 μl.
Either 1 μl of 50% DMSO or diluted compound was added to the plate. USP30 was diluted in reaction buffer (40 mM Tris, pH 7.5, 0.005% Tween 20, 0.5 mg/ml BSA, 5 mM—beta-mercaptoethanol) to the equivalent of 0.001 μl/well and 10 μl of diluted USP30 was added to the compound. Enzyme and compound were incubated for 30 min at room temp. Reactions were initiated by the addition of Ubiquitin-Rhodamine 110 (U-555; Boston Biochem) at a final concentration of 100 nM. Reactions were read immediately after addition of substrate and following a 2 h incubation at room temperature. Readings were performed on a Pherastar Plus (BMG Labtech). λ Excitation 487 nm; λ Emission 535 nm.

Chain of USP30 (Q70CQ3 57-517): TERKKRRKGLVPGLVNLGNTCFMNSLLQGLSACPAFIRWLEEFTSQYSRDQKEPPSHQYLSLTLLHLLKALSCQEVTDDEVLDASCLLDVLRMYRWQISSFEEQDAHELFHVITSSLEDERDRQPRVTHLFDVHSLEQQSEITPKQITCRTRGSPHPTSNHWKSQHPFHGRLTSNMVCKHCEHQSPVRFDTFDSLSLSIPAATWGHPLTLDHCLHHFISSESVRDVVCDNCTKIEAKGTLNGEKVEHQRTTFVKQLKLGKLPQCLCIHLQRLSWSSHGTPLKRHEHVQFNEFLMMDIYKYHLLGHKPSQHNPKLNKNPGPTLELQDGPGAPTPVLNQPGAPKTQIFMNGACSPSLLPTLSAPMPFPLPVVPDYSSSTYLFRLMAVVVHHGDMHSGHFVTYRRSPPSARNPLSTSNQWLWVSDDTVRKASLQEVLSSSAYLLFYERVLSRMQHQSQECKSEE

| Compound | pIC50 |
| --- | --- |
| Cc1cc(-c2ccc(NC(=O)N3CC[C@@H]4CN(C#N)C[C@@H]43)nc2)ccn1 [Example 244, (3aR,6aR)-5-cyano-N-(2′-methyl-[3,4′-bipyridin]-6-yl)hexahydropyrrolo[3,4-b]pyrrole-1(2H)-carboxamide] | > 7.00 |
| N#CN1CC[C@@H](NC(=O)c2cc(-c3ccccc3)[nH]n2)C1 [Example 102, (R)-N-(1-cyanopyrrolidin-3-yl)-phenyl-1H-pyrazole-3-carboxamide] | > 7.00 |
| Cn1cc(-c2ccc(C(=O)NC3(C)CCN(C#N)C3)c(F)c2)cn1 (centres unmarked) [Example 94, N-(1-cyano-3-methylpyrrolidin-3-yl)-2-fluoro-4-(1-methyl-1H-pyrazol-4-yl)benzamide] | 5.00 to 6.00 |
| N#CN1CCC(NC(=O)c2ccc(N3CCC(C(N)=O)CC3)nc2)C1 (racemic) [Example 18, 6-(4-carbamoylpiperidin-1-yl)-N-(1-cyanopyrrolidin-3-yl)nicotinamide] | 5.00 to 6.00 |
| C[C@@H]1CN(c2cc(C(=O)N[C@@H]3CCN(C#N)C3)c(F)cn2)C[C@H](C)O1 [Example 140, N-((R)-1-cyanopyrrolidin-3-yl)-2-((2S,6R)-2,6-dimethylmorpholino)-5-fluoroisonicotinamide] | 6.00 to 7.00 |
| N#CN1CC[C@@H](NC(=O)c2ccnc(N3CCc4ccccc4C3)c2)C1 [Example 74, (R)—N-(1-cyanopyrrolidin-3-yl)-2-(3,4-dihydroisoquinolin-2(1H)-yl)isonicotinamide] | 6.00 to 7.00 |
| Cn1cc(-c2ccc3cc(C(=O)N[C@@H]4CCN(C#N)C4)n(C)c3c2)cn1 [Example 229, (R)-N-(1-cyanopyrrolidin-3-yl)-1-methyl-6-(1-methyl-1H-pyrazol-4-yl)-1H-indole-2-carboxamide] | 6.00 to 7.00 |
| N#CN1CCC(NC(=O)c2cccc(N3CCc4ccccc4C3)n2)C1 (racemic) [Example 25, N-(1-cyanopyrrolidin-3-yl)-6-(3,4-dihydroisoquinolin-2(1H)-yl)picolinamide] | 5.00 to 6.00 |
| CCn1cc(-c2cnc(C(=O)N[C@@H]3CCN(C#N)C3)cc2C)cn1 [Example 132, (R)-N-(1-cyanopyrrolidin-3-yl)-5-(1-ethyl-1H-pyrazol-4-yl)-4-methylpicolinamide] | 6.00 to 7.00 |
| N#CN1CC[C@@H](NC(=O)c2ncc(-c3ccn4nccc4n3)cc2F)C1 [Example 186, (R)-N-(1-cyanopyrrolidin-3-yl)-3-fluoro-5-(pyrazolo[1,5-a]pyrimidin-5-yl)picolinamide] | 6.00 to 7.00 |
| CO[C@@H]1CCN(c2ccc(C(=O)N[C@H]3CN(C#N)C[C@@H]3C)c(F)c2)C1 (racemic) [Example 92, N-((trans)-1-cyano-4-methylpyrrolidin-3-yl)-2-fluoro-4-((R)-3-methoxypyrrolidin-1-yl)benzamide] | 6.00 to 7.00 |
| N#CN1CCC(NC(=O)c2ccc(N3CCCC3c3cccnc3)nc2)C1 (racemic) [Example 21, N-(1-cyanopyrrolidin-3-yl)-6-(2-(pyridin-3-yl)pyrrolidin-1-yl)nicotinamide] | 5.00 to 6.00 |
| N#CN1CC[C@@H](NC(=O)c2ccc(-c3ccnc(C(F)(F)F)n3)cc2F)C1 [Example 183, (R)-N-(1-cyanopyrrolidin-3-yl)-2-fluoro-4-(2-(trifluoromethyl)pyrimidin-4-yl)benzamide] | 6.00 to 7.00 |
| N#CN1C[C@H]2CCN(C(=O)Nc3ccc(OC(F)(F)F)cc3F)[C@H]2C1 [Example 197, (3aR,6aR)-5-cyano-N-(2-fluoro-4-(trifluoromethoxy)phenyl)hexahydropyrrolo[3,4-b]pyrrole-1(2H)-carboxamide] | > 7.00 |
| N#CN1CC[C@@H](NC(=O)c2cccc(-c3ccccc3)n2)C1 [Example 29, (R)-N-(1-cyanopyrrolidin-3-yl)-6-phenylpicolinamide] | 6.00 to 7.00 |
| CN(Cc1ccccc1)c1ccc(C(=O)NC2CCN(C#N)C2)cn1 (centres unmarked) [Example 4, 6-(benzyl(methyl)amino)-N-(1-cyanopyrrolidin-3-yl)nicotinamide] | 6.00 to 7.00 |
| Cn1cc(-c2ccc(C(=O)N[C@@H]3CCN(C#N)C3)nc2)cn1 [Example 106, (R)-N-(1-cyanopyrrolidin-3-yl)-5-(1-methyl-1H-pyrazol-4-yl)picolinamide] | 6.00 to 7.00 |
| N#CN1C[C@H]2CCN(C(=O)Nc3ccc(Cl)cc3F)[C@H]2C1 [Example 196, (3aR,6aR)-N-(4-chloro-2-fluorophenyl)-5-cyanohexahydropyrrolo[3,4-b]pyrrole-1(2H)-carboxamide] | 6.00 to 7.00 |
| N#CN1C[C@H]2CCN(C(=O)c3cc(-c4ccccc4)no3)[C@H]2C1 (racemic) [Example 53, rac-(3aR,6aR)-1-(3-phenylisoxazole-5-carbonyl)hexahydropyrrolo[3,4-b]pyrrole-5(1H)-carbonitrile] | 6.00 to 7.00 |
| CCn1cc(-c2ccc3nc(C(=O)N[C@@H]4CCN(C#N)C4)c(F)n3c2)cn1 [Example 169, (R)-N-(1-cyanopyrrolidin-3-yl)-6-(1-ethyl-1H-pyrazol-4-yl)-3-fluoroimidazo[1,2-a]pyridine-2-carboxamide] | 6.00 to 7.00 |
| COc1ccc(-c2cc(C(=O)N[C@@H]3CCN(C#N)C3)on2)cc1OC [Example 220, (R)-N-(1-cyanopyrrolidin-3-yl)-3-(3,4-dimethoxyphenyl)isoxazole-5-carboxamide] | 6.00 to 7.00 |

The remaining lines, values ahead:

| pIC50 | Compound |
| --- | --- |
| 6.00 to 7.00 | C[C@@H]1CN(c2ccc(C(=O)N[C@@H]3CCN(C#N)C3)cc2F)C[C@H](C)O1 [Example 6, N—((R)-1-cyanopyrrolidin-3-yl)-4-((cis)-2,6-dimethylmorpholino)-3-fluorobenzamide] |
| 6.00 to 7.00 | CC(C)C(=O)N(C)c1ccnc(C(=O)N[C@@H]2CCN(C#N)C2)c1 [Example 215, (R)-N-(1-cyanopyrrolidin-3-yl)-4-(N-methylisobutyramido)picolinamide] |
| > 7.00 | N#CN1C[C@H]2CCN(C(=O)Nc3ccc(C(F)(F)F)cc3F)[C@H]2C1 [Example 90, (3aR,6aR)-5-cyano-N-(2-fluoro-4-(trifluoromethyl)phenyl)hexahydropyrrolo[3,4-b]pyrrole-1(2H)-carboxamide] |
| 6.00 to 7.00 | CN(C(=O)N1CC(Oc2ccccc2)C1)[C@@H]1CCN(C#N)C1 [Example 89, (R)—N-(1-cyanopyrrolidin-3-yl)-N-methyl-3-phenoxyazetidine-1-carboxamide] |
| > 7.00 | Cc1cc(-c2ccc(C(=O)N[C@@H]3CCN(C#N)C3)c(F)c2)nc(C)n1 [Example 181, (R)-N-(1-cyanopyrrolidin-3-yl)-4-(2,6-dimethylpyrimidin-4-yl)-2-fluorobenzamide] |
| 6.00 to 7.00 | C[C@@H]1[C@H](NC(=O)c2ccc(-c3ccc(F)cc3)cn2)CCN1C#N (racemic) [Example 174, N-((cis)-1-cyano-2-methylpyrrolidin-3-yl)-5-(4-fluorophenyl)picolinamide] |
| 6.00 to 7.00 | CN(C(=O)Nc1ccc(C(F)(F)F)nc1)[C@@H]1CCN(C#N)C1 [Example 266, (R)-1-(1-cyanopyrrolidin-3-yl)-1-methyl-3-(6-(trifluoromethyl)pyridin-3-yl)urea] |
| > 7.00 | COc1cc(C(=O)N[C@@H]2CCN(C#N)C2)ccc1-c1ccnc(C)c1 [Example 40, (R)-N-(1-cyanopyrrolidin-3-yl)-3-methoxy-4-(2-methylpyridin-4-yl)benzamide] |
| > 7.00 | Cc1cn(-c2ccc(C(=O)N[C@@H]3CCN(C#N)C3)cc2F)cn1 [Example 223, (R)-N-(1-cyanopyrrolidin-3-yl)-3-fluoro-4-(4-methyl-1H-imidazol-1-yl)benzamide] |
| > 7.00 | N#CN1CC[C@@H](NC(=O)c2ccc3c(c2)CCN3c2nccc(C3CC3)n2)C1 [Example 239, (R)-N-(1-cyanopyrrolidin-3-yl)-1-(4-cyclopropylpyrimidin-2-yl)indoline-5-carboxamide] |
| > 7.00 | COc1cc(C(=O)N[C@@H]2CCN(C#N)C2)ccc1-c1cnn(C)c1 [Example 2, (R)—N-(1-cyanopyrrolidin-3-yl)-3-methoxy-4-(1-methyl-1H-pyrazol-4-yl)benzamide] |
| > 7.00 | Cn1cc(-c2ccc(C(=O)N[C@@H]3CCN(C#N)C3)c(F)c2)cn1 [Example 77, (R)-N-(1-cyanopyrrolidin-3-yl)-2-fluoro-4-(1-methyl-1H-pyrazol-4-yl)benzamide] |
| > 7.00 | Cc1nn(C)cc1-c1ccc(C(=O)N[C@@H]2CCN(C#N)C2)cc1F [Example 79, (R)-N-(1-cyanopyrrolidin-3-yl)-4-(1,3-dimethyl-1H-pyrazol-4-yl)-3-fluorobenzamide] |
| > 7.00 | N#CN1CC[C@@H](NC(=O)c2ccc(Nc3ncccn3)c(F)c2)C1 [Example 142, (R)-N-(1-cyanopyrrolidin-3-yl)-3-fluoro-4-(pyrimidin-2-ylamino)benzamide] |
